Experiment [1] concerns the target JAK1 (recombinant purified GST-tagged catalytic domain) (Homo sapiens (Human), UniProt P23458). The experiment can be described thus: Jak Biochemical HTRF Assay (JAK1). The note with it: [ATP] 31.8 μM. The method in brief:
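Compounds in DMSO were pre-equilibrated with enzyme and biotinylated peptide, then ATP was added and the reaction proceeded 120 min at room temperature. EDTA-based stop buffer with detection reagents was added, and after 60 min the time-resolved FRET ratio was read. IC50s came from 4-parameter dose–response fits.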
For orientation: TR-FRET usually uses a lanthanide donor and a delayed reading to cut background.

For experiment [2], the target named is JAK2 (recombinant purified GST-tagged catalytic domain) (Homo sapiens (Human), UniProt O60674). The experiment can be described thus: Jak Biochemical HTRF Assay (JAK2). The note with it: [ATP] 8.5 μM.
Chain of JAK2 (recombinant purified GST-tagged catalytic domain) (O60674 849-1124): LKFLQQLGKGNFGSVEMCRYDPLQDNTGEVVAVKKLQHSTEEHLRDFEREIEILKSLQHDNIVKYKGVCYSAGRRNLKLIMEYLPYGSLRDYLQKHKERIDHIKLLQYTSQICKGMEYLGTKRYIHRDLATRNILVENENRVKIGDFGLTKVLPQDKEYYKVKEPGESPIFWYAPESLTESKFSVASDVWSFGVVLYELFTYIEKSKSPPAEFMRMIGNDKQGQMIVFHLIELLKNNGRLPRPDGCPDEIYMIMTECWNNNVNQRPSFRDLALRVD

Chain of JAK1 (recombinant purified GST-tagged catalytic domain) (P23458 875-1153): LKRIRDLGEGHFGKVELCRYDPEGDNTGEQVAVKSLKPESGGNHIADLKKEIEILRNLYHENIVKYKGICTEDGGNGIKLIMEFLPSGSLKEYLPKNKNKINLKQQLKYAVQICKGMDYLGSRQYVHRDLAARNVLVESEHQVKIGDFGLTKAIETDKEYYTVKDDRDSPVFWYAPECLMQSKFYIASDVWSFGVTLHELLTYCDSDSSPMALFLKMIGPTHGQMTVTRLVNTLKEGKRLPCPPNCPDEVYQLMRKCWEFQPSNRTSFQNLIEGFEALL

A word on the IC50: it is the point on the concentration scale where inhibition reaches its midpoint. For `CC(C)(C)OC(=O)N1CC[C@](CC#N)(n2nc(Nc3ccc([C@H](O)C(F)(F)F)cc3)c3c(=O)[nH]ccc32)[C@H](F)C1` (single isomer, unassigned) [Example 5-20, tert-butyl (3R,4R)-4-(cyanomethyl)-3-fluoro-4-[4-oxo-3-({4-[(1S or 1R)-2,2,2-trifluoro-1-hydroxyethyl]phenyl}amino)-4,5-dihydro-1H-pyrazolo [4,3-c]pyridin-1-yl] piperidine-1-carboxylate], the IC50 in experiment [1] is 0.15 nM; in experiment [2], 0.12 nM.

`CC(C)(C)OC(=O)N1CCC(CC#N)(n2nc(Nc3ccc([C@@]4(C(F)(F)F)CCCN4)cc3)c3c(=O)[nH]ccc32)CC1` (single isomer, unassigned) [Example 21-18, (R or S)-tert-butyl 4-(cyanomethyl)-4-(4-oxo-3-(4-(2-(trifluoromethyl)pyrrolidin-2-yl)phenylamino)-4,5-dihydropyrazolo[4,3-c]pyridin-1-yl)piperidine-1-carboxylate]: the figures for the IC50 in experiment [1] and in experiment [2] were 0.55 nM and 0.5 nM, respectively.

Take `CN(C)c1ccc2cc(Nc3nn([C@]4(CC#N)CCCOC4)c4cc[nH]c(=O)c34)ccc2n1` [Example 5-225, (S)-2-(3-(3-((2-(dimethylamino)quinolin-6-yl)amino)-4-oxo-4,5-dihydro-1H-pyrazolo[4,3-c]pyridin-1-yl)tetrahydro-2H-pyran-3-yl)acetonitrile]: the IC50 in experiment [1] was found to be 0.15 nM; in experiment [2], 2.3 nM.

As to `CC(C)(C)OC(=O)N1CCC(CC#N)(n2nc(Nc3ccc4c(c3)CN(CC(F)(F)F)S4(=O)=O)c3c(=O)[nH]ccc32)CC1` [Example 5-25, tert-butyl 4-(cyanomethyl)-4-(3-((1,1-dioxido-2-(2,2,2-trifluoroethyl)-2,3-dihydrobenzo[d]isothiazol-5-yl)amino)-4-oxo-4,5-dihydro-1H-pyrazolo[4,3-c]pyridin-1-yl)piperidine-1-carboxylate], the IC50 in experiment [1] worked out at 0.19 nM; in experiment [2] it was 0.3 nM.

`N#CCC1(n2nc(Nc3ccc([C@H](O)C(F)(F)F)cc3)c3c(=O)[nH]ccc32)CCN(c2cc(C(F)(F)F)ccn2)CC1` (single isomer, unassigned) [Example 16-3, (R or S)-2-(4-(4-Oxo-3-(4-(2,2,2-trifluoro-1-hydroxyethyl)phenylamino)-4,5-dihydropyrazolo[4,3-c]pyridin-1-yl)-1-(4-(trifluoromethyl)pyridin-2-yl)piperidin-4-yl)acetonitrile]: the IC50 in experiment [1] is 1.15 nM; in experiment [2], 3.82 nM.

With `N#CC[C@]1(n2nc(Nc3ccc(Cl)c(F)c3)c3c(=O)[nH]ccc32)CC[C@H](Nc2ccccc2)CC1` [Example 18-26, Trans 2-(1-(3-((4-chloro-3-fluorophenyl)amino)-4-oxo-4,5-dihydro-1H-pyrazolo[4,3-c]pyridin-1-yl)-4-(phenylamino)cyclohexyl)acetonitrile], the IC50 in experiment [1] was 2.48 nM; in experiment [2] it was 54.7 nM.

Turning to `CCN(CC)S(=O)(=O)c1ccc(Nc2nn(C3(CC#N)CCCC3)c3cc[nH]c(=O)c23)cc1` [Example 5-136, 4-((1-(1-(cyanomethyl)cyclopentyl)-4-oxo-4,5-dihydro-1H-pyrazolo[4,3-c]pyridin-3-yl)amino)-N,N-diethylbenzenesulfonamide], the half-inhibitory concentration (IC50) came to 0.56 nM in experiment [1] and 1.01 nM in experiment [2].

In the case of `Cc1cc(Nc2nn([C@]3(CC#N)CC[C@@H](C(=O)OC(C)(C)C)OC3)c3cc[nH]c(=O)c23)ccc1C(=O)N1CCOCC1` [Example 20-5, (2S,5S)-tert-butyl 5-(cyanomethyl)-5-(3-((3-methyl-4-(morpholine-4-carbonyl)phenyl)amino)-4-oxo-4,5-dihydro-1H-pyrazolo[4,3-c]pyridin-1-yl)tetrahydro-2H-pyran-2-carboxylate], the results for the concentration for half-maximal inhibition (IC50) in experiment [1] and in experiment [2] were 0.13 nM and 0.19 nM, respectively.

`N#CCC1(n2nc(Nc3ccc(C(N)C(F)(F)F)cc3)c3c(=O)[nH]ccc32)CCCC1` (single isomer, unassigned) [Example 5-89, (R or S)-2-(1-(3-((4-(1-amino-2,2,2-trifluoroethyl)phenyl)amino)-4-oxo-4,5-dihydro-1H-pyrazolo[4,3-c]pyridin-1-yl)cyclopentyl)acetonitrile]: the IC50 in experiment [1] worked out at 0.5 nM; in experiment [2], 1.74 nM.

As to `Cc1cc(Nc2nn([C@]3(CC#N)CC[C@@H](C(=O)OC(C)(C)C)OC3)c3cc[nH]c(=O)c23)ccc1C(=O)N1CCSC1` [Example 5-155, (2S,5S)-tert-butyl 5-(cyanomethyl)-5-(3-((3-methyl-4-(thiazolidine-3-carbonyl)phenyl)amino)-4-oxo-4,5-dihydro-1H-pyrazolo[4,3-c]pyridin-1-yl)tetrahydro-2H-pyran-2-carboxylate], the figures for the IC50 in experiment [1] and in experiment [2] were 0.18 nM and 0.39 nM, respectively.

With `Cc1nc2ccc(Nc3nn([C@]4(CC#N)CC[C@@H](C(=O)OC(C)(C)C)OC4)c4cc[nH]c(=O)c34)cc2s1` [Example 21-1, (2S,5S)-tert-butyl 5-(cyanomethyl)-5-(3-((2-methylbenzo[d]thiazol-6-yl)amino)-4-oxo-4,5-dihydro-1H-pyrazolo[4,3-c]pyridin-1-yl)tetrahydro-2H-pyran-2-carboxylate], the IC50 in experiment [1] was 0.08 nM; in experiment [2] it was 0.73 nM.

Turning to `N#CC[C@@]1(n2nc(Nc3ccc(C(N4CCCC4)C(F)(F)F)cc3)c3c(=O)[nH]ccc32)CCCOC1` (single isomer, unassigned) [Example 5-198, {(3S)-3-[4-oxo-3-({4-[(1R or 1S)-2,2,2-trifluoro-1-pyrrolidin-1-ylethyl]phenyl}amino)-4,5-dihydro-1H-pyrazolo [4,3-c]pyridin-1-yl]tetrahydro-2H-pyran-3-yl}acetonitrile], the IC50 in experiment [1] was found to be 0.16 nM; in experiment [2], 0.39 nM.

For the compound `COC(=O)N1CCC(CC#N)(n2nc(Nc3ccc(S(=O)(=O)C(C)C)cc3)c3c(=O)[nH]ccc32)CC1` [Example 5-149, methyl 4-(cyanomethyl)-4-(3-((4-(isopropylsulfonyl)phenyl)amino)-4-oxo-4,5-dihydro-1H-pyrazolo[4,3-c]pyridin-1-yl)piperidine-1-carboxylate], the IC50 was determined as 0.12 nM in experiment [1] and 0.23 nM in experiment [2].

On to `CC(C)N1Cc2cc(Nc3nn(C4(CC#N)CCCC4)c4cc[nH]c(=O)c34)ccc2C1=O` [Example 5-129, 2-(1-(3-((2-isopropyl-1-oxoisoindolin-5-yl)amino)-4-oxo-4,5-dihydro-1H-pyrazolo[4,3-c]pyridin-1-yl)cyclopentyl)acetonitrile], for which the IC50 turned out to be 2.07 nM in experiment [1] and 3.54 nM in experiment [2].

For the compound `CNS(=O)(=O)c1ccc(Nc2nn(C3(CC#N)CCCC3)c3cc[nH]c(=O)c23)cc1` [Example 5-131, 4-((1-(1-(cyanomethyl)cyclopentyl)-4-oxo-4,5-dihydro-1H-pyrazolo[4,3-c]pyridin-3-yl)amino)-N-methylbenzenesulfonamide], the figures for the half-maximal inhibitory concentration (IC50) in experiment [1] and in experiment [2] were 0.25 nM and 0.98 nM, respectively.

Turning to `CO[C@H](c1ccc(Nc2nn(C3(CC#N)CCN(C(=O)OC(C)(C)C)CC3)c3cc[nH]c(=O)c23)cc1)C(F)(F)F` (single isomer, unassigned) [Example 21-9, tert-butyl 4-(cyanomethyl)-4-[4-oxo-3-({4-[(1R or 1S)-2,2,2-trifluoro-1-methoxyethyl]phenyl}amino)-4,5-dihydro-1H-pyrazolo[4,3-c]pyridin-1-yl]piperidine-1-carboxylate], the results for the IC50 in experiment [1] and in experiment [2] were 1.11 nM and 1.96 nM, respectively.

`N#CCC1(n2nc(Nc3ccc(C(F)(F)F)cc3)c3c(=O)[nH]ccc32)CCC2(CC1)OCCO2` [Example 5-83, 2-(8-(4-oxo-3-((4-(trifluoromethyl)phenyl)amino)-4,5-dihydro-1H-pyrazolo[4,3-c]pyridin-1-yl)-1,4-dioxaspiro[4.5]decan-8-yl)acetonitrile]: the IC50 came to 1.97 nM in experiment [1] and 21.6 nM in experiment [2].

As for `CC(C)(C)N[C@@H](c1ccc(Nc2nn([C@]3(CC#N)CCOC[C@@H]3F)c3cc[nH]c(=O)c23)cc1)C(F)(F)F` (single isomer, unassigned) [Example 5-270, 2-((3R,4R or 3S,4S)-4-(3-((4-((S or R)-1-(tert-butylamino)-2,2,2-trifluoroethyl)phenyl)amino)-4-oxo-4,5-dihydro-1H-pyrazolo[4,3-c]pyridin-1-yl)-3-fluorotetrahydro-2H-pyran-4-yl)acetonitrile], the IC50 in experiment [1] came to 0.12 nM; in experiment [2] it was 0.13 nM.

Take `CCN1Cc2cc(Nc3nn(C4(CC#N)CCN(C(=O)OC)CC4)c4cc[nH]c(=O)c34)ccc2S1(=O)=O` [Example 5-72, methyl 4-{3-[(2-ethyl-1,1-dioxo-2,3-dihydro-1,2-benzothiazol-5-yl)amino]-4-oxo-1H,4H,5H-pyrazolo [4,3-c]pyridin-1-yl}-4-(cyanomethyl)piperidine-1-carboxylate]: the IC50 was determined as 0.06 nM in experiment [1] and 0.26 nM in experiment [2].

In the case of `CN(C)S(=O)(=O)c1ccc(Nc2nn(C3(CC#N)CCN(Cc4ccccc4)CC3)c3cc[nH]c(=O)c23)cc1` [Example 8-1, 4-({1-[1-benzyl-4-(cyanomethyl)piperidin-4-yl]-4-oxo-4,5-dihydro-1H-pyrazolo[4,3-c]pyridin-3-yl}amino)-N,N-dimethylbenzenesulfonamide], the IC50 in experiment [1] amounted to 0.17 nM; in experiment [2], 0.38 nM.

Turning to `N#CC[C@@]1(n2nc(Nc3ccccc3)c3c(=O)[nH]ccc32)CCCOC1` [Example 5-27, (S)-2-(3-(4-oxo-3-(phenylamino)-4,5-dihydro-1H-pyrazolo[4,3-c]pyridin-1-yl)tetrahydro-2H-pyran-3-yl)acetonitrile], the IC50 in experiment [1] was determined as 0.22 nM; in experiment [2] it was 2.81 nM.

The values are drawn from patent US9957264B2 (Merck Sharp & Dohme Corp., priority 2013, dated 2018).
